From ChEMBL document CHEMBL4043270, “Design, synthesis and biological evaluation of 2-phenylquinoline-4-carboxamide derivatives as a new class of tubulin polymerization inhibitors” (Bioorg Med Chem, 2017)
Calls of active or inactive are those of the source. No cut-off for these calls is given here.

system: MDA-MB-468; test: Antiproliferative activity against human MDA-MB-468 cells by SRB assay; type: functional, cell-based; conditions: not given

Compound | IC50
COc1cc(NC(=O)c2cc(-c3ccc(C)cc3)nc3ccccc23)cc(OC)c1OC | 10.8 µM
COc1ccc(NC(=O)c2c3c(nc4ccc(Cl)cc24)-c2ccccc2CC3)c(C)c1 | > 50 µM
COC(=O)c1sccc1NC(=O)c1cc(-c2ccccc2)nc2ccccc12 | 36.8 µM
COc1cccc(NC(=O)c2cc(-c3ccccc3)nc3ccccc23)c1 | 34.7 µM
COc1cc(NC(=O)c2cc(-c3cccc(C)c3)nc3ccccc23)cc(OC)c1OC | 32.7 µM
COc1ccc(NC(=O)c2cc(-c3ccccc3)nc3ccccc23)cc1 | 34.7 µM
COc1ccc(NC(=O)c2cc(-c3ccc(C)cc3)nc3ccccc23)cc1 | 35.2 µM
CSc1cccc(NC(=O)c2cc(-c3ccccc3)nc3ccccc23)c1 | 42.8 µM

system: HCT-116; test: Induction of Cyclin B1 accumulation in human HCT116 cells at 0.06 to 1 uM after 24 hrs by Western blot method; type: functional, cell-based; conditions: not given

Compound | Activity
COc1cc(NC(=O)c2cc(-c3ccc(C)cc3)nc3ccccc23)cc(OC)c1OC | Active

system: HCT-116; test: Cell cycle arrest in human HCT116 cells assessed as accumulation at G2/M phase at 500 nM after 48 hrs by […]propidium iodide staining based flow cytometry (reference value: 1.62%); type: functional; conditions: not given

Compound | Activity
COc1cc(NC(=O)c2cc(-c3ccc(C)cc3)nc3ccccc23)cc(OC)c1OC | 87.2%

system: HCT-116; test: Induction of apoptosis in human HCT116 cells assessed as early apoptotic cells at 0.5 uM after 24 hrs by annexin-V FITC/propidium iodide staining based flow cytometry (reference value: 1.08%); type: functional; conditions: not given

Compound | Activity
COc1cc(NC(=O)c2cc(-c3ccc(C)cc3)nc3ccccc23)cc(OC)c1OC | 45.26%

system: HCT-116; test: Induction of apoptosis in human HCT116 cells assessed as viable cells at 0.5 uM after 24 hrs by annexin-V FITC/propidium iodide staining based flow cytometry (reference value: 97.93%); type: functional; conditions: HCT-116, 24 h, read-out: Activity

Compound | viability at 0.5 µM
COc1cc(NC(=O)c2cc(-c3ccc(C)cc3)nc3ccccc23)cc(OC)c1OC | 15.2%

species on record: Homo sapiens; test: Displacement of colchicine from tubulin (unknown origin) at 0.1 to 10 uM after 1 hr by fluorescence assay; conditions: not given

Compound | inhibition
COc1cc(NC(=O)c2cc(-c3ccc(C)cc3)nc3ccccc23)cc(OC)c1OC | Active
CC[C@]1(O)C[C@@H]2CN(CCc3c([nH]c4ccccc34)[C@@](C(=O)OC)(c3cc4c(cc3OC)N(C)[C@H]3[C@@](O)(C(=O)OC)[C@H](OC(C)=O)[C@]5(CC)C=CCN6CC[C@]43[C@@H]65)C2)C1 | inactive

system: HCT-116; test: Induction of microtubule disruption in human HCT116 cells assessed as change in microtubule architecture at 0.5 uM after 24 hrs by DAPI staining based confocal microscopic method; type: functional, cell-based; conditions: not given

Compound | Activity
COc1cc(NC(=O)c2cc(-c3ccc(C)cc3)nc3ccccc23)cc(OC)c1OC | Active

system: HeLa; test: Antiproliferative activity against human HeLa cells by SRB assay; type: functional, cell-based; conditions: not given

Compound | IC50
COc1cc(NC(=O)c2cc(-c3ccc(C)cc3)nc3ccccc23)cc(OC)c1OC | 1.6 µM
COc1ccc(NC(=O)c2c3c(nc4ccc(Cl)cc24)-c2ccccc2CC3)c(C)c1 | > 50 µM
COC(=O)c1sccc1NC(=O)c1cc(-c2ccccc2)nc2ccccc12 | 34.5 µM
COc1cccc(NC(=O)c2cc(-c3ccccc3)nc3ccccc23)c1 | 40.5 µM
COc1cc(NC(=O)c2cc(-c3cccc(C)c3)nc3ccccc23)cc(OC)c1OC | 5.3 µM
COc1ccc(NC(=O)c2cc(-c3ccccc3)nc3ccccc23)cc1 | 32.5 µM
COc1ccc(NC(=O)c2cc(-c3ccc(C)cc3)nc3ccccc23)cc1 | 25.2 µM
CSc1cccc(NC(=O)c2cc(-c3ccccc3)nc3ccccc23)c1 | 45.8 µM

system: HCT-116; test: Induction of apoptosis in human HCT116 cells assessed as late apoptotic cells at 0.5 uM after 24 hrs by annexin-V FITC/propidium iodide staining based flow cytometry (reference value: 0.96%); type: functional; conditions: not given

Compound | Activity
COc1cc(NC(=O)c2cc(-c3ccc(C)cc3)nc3ccccc23)cc(OC)c1OC | 39.47%

system: HCT-116; test: Antiproliferative activity against human HCT116 cells by SRB assay; type: functional, cell-based; conditions: not given

Compound | IC50
COc1cc(NC(=O)c2cc(-c3ccc(C)cc3)nc3ccccc23)cc(OC)c1OC | 0.2 µM
COc1ccc(NC(=O)c2c3c(nc4ccc(Cl)cc24)-c2ccccc2CC3)c(C)c1 | > 50 µM
COC(=O)c1sccc1NC(=O)c1cc(-c2ccccc2)nc2ccccc12 | 22.6 µM
COc1cccc(NC(=O)c2cc(-c3ccccc3)nc3ccccc23)c1 | 12.9 µM
COc1cc(NC(=O)c2cc(-c3cccc(C)c3)nc3ccccc23)cc(OC)c1OC | 11.6 µM
COc1ccc(NC(=O)c2cc(-c3ccccc3)nc3ccccc23)cc1 | 4.9 µM
COc1ccc(NC(=O)c2cc(-c3ccc(C)cc3)nc3ccccc23)cc1 | 3.7 µM
CSc1cccc(NC(=O)c2cc(-c3ccccc3)nc3ccccc23)c1 | 48.3 µM

system: SK-OV-3; test: Antiproliferative activity against human SKOV3 cells by SRB assay; type: functional, cell-based; conditions: not given

Compound | IC50
COc1cc(NC(=O)c2cc(-c3ccc(C)cc3)nc3ccccc23)cc(OC)c1OC | 0.5 µM
COc1ccc(NC(=O)c2c3c(nc4ccc(Cl)cc24)-c2ccccc2CC3)c(C)c1 | 32.5 µM
COC(=O)c1sccc1NC(=O)c1cc(-c2ccccc2)nc2ccccc12 | 20.3 µM
COc1cccc(NC(=O)c2cc(-c3ccccc3)nc3ccccc23)c1 | 17.4 µM
COc1cc(NC(=O)c2cc(-c3cccc(C)c3)nc3ccccc23)cc(OC)c1OC | 10.6 µM
COc1ccc(NC(=O)c2cc(-c3ccccc3)nc3ccccc23)cc1 | 12.8 µM
COc1ccc(NC(=O)c2cc(-c3ccc(C)cc3)nc3ccccc23)cc1 | 6.3 µM
CSc1cccc(NC(=O)c2cc(-c3ccccc3)nc3ccccc23)c1 | 36.8 µM

system: HCT-116; test: Cell cycle arrest in human HCT116 cells assessed as accumulation at G1 phase at 125 nM after 48 hrs by […]propidium iodide staining based flow cytometry (reference value: 89.45%); type: functional; conditions: not given

Compound | Activity
COc1cc(NC(=O)c2cc(-c3ccc(C)cc3)nc3ccccc23)cc(OC)c1OC | 46.62%

system: HCT-116; test: Cell cycle arrest in human HCT116 cells assessed as accumulation at G1 phase at 500 nM after 48 hrs by […]propidium iodide staining based flow cytometry (reference value: 89.45%); type: functional; conditions: not given

Compound | Activity
COc1cc(NC(=O)c2cc(-c3ccc(C)cc3)nc3ccccc23)cc(OC)c1OC | 4.93%

system: HCT-116; test: Cell cycle arrest in human HCT116 cells assessed as accumulation at S phase at 500 nM after 48 hrs by […]propidium iodide staining based flow cytometry (reference value: 8.93%); type: functional; conditions: not given

Compound | Activity
COc1cc(NC(=O)c2cc(-c3ccc(C)cc3)nc3ccccc23)cc(OC)c1OC | 7.87%

system: HCT-116; test: Cell cycle arrest in human HCT116 cells assessed as accumulation at G2/M phase at 125 nM after 48 hrs by […]propidium iodide staining based flow cytometry (reference value: 1.62%); type: functional; conditions: not given

Compound | Activity
COc1cc(NC(=O)c2cc(-c3ccc(C)cc3)nc3ccccc23)cc(OC)c1OC | 48.17%

system: HCT-116; test: Induction of apoptosis in human HCT116 cells assessed as necrotic cells at 0.5 uM after 24 hrs by annexin-V FITC/propidium iodide staining based flow cytometry (reference value: 0.03%); type: functional; conditions: not given

Compound | Activity
COc1cc(NC(=O)c2cc(-c3ccc(C)cc3)nc3ccccc23)cc(OC)c1OC | 0.04%

system: A549; test: Antiproliferative activity against human A549 cells by SRB assay; type: functional, cell-based; conditions: not given

Compound | IC50
COc1cc(NC(=O)c2cc(-c3ccc(C)cc3)nc3ccccc23)cc(OC)c1OC | 5.7 µM
COc1ccc(NC(=O)c2c3c(nc4ccc(Cl)cc24)-c2ccccc2CC3)c(C)c1 | > 50 µM
COC(=O)c1sccc1NC(=O)c1cc(-c2ccccc2)nc2ccccc12 | 48.7 µM
COc1cccc(NC(=O)c2cc(-c3ccccc3)nc3ccccc23)c1 | 32.5 µM
COc1cc(NC(=O)c2cc(-c3cccc(C)c3)nc3ccccc23)cc(OC)c1OC | 17.8 µM
COc1ccc(NC(=O)c2cc(-c3ccccc3)nc3ccccc23)cc1 | 20.5 µM
COc1ccc(NC(=O)c2cc(-c3ccc(C)cc3)nc3ccccc23)cc1 | 18.5 µM
CSc1cccc(NC(=O)c2cc(-c3ccccc3)nc3ccccc23)c1 | > 50 µM

system: HCT-116; test: Cell cycle arrest in human HCT116 cells assessed as accumulation at S phase at 125 nM after 48 hrs by […]propidium iodide staining based flow cytometry (reference value: 8.93%); type: functional; conditions: not given

Compound | Activity
COc1cc(NC(=O)c2cc(-c3ccc(C)cc3)nc3ccccc23)cc(OC)c1OC | 5.21%

system: MRC5; test: Antiproliferative activity against human MRC5 cells by SRB assay; type: cell-based; conditions: not given

Compound | IC50
COc1cc(NC(=O)c2cc(-c3ccc(C)cc3)nc3ccccc23)cc(OC)c1OC | 31.9 µM
COc1ccc(NC(=O)c2c3c(nc4ccc(Cl)cc24)-c2ccccc2CC3)c(C)c1 | > 50 µM
COC(=O)c1sccc1NC(=O)c1cc(-c2ccccc2)nc2ccccc12 | 46.3 µM
COc1cccc(NC(=O)c2cc(-c3ccccc3)nc3ccccc23)c1 | 43.8 µM
COc1cc(NC(=O)c2cc(-c3cccc(C)c3)nc3ccccc23)cc(OC)c1OC | 42.3 µM
COc1ccc(NC(=O)c2cc(-c3ccccc3)nc3ccccc23)cc1 | 40.5 µM
COc1ccc(NC(=O)c2cc(-c3ccc(C)cc3)nc3ccccc23)cc1 | 47.8 µM
CSc1cccc(NC(=O)c2cc(-c3ccccc3)nc3ccccc23)c1 | > 50 µM

species on record: Bos taurus; test: Inhibition of bovine tubulin polymerization at 125 to 725 nM measured every 60 secs intervals for 60 mins in presence of GTP by fluorescence assay; conditions: not given

Compound | inhibition
COc1cc(NC(=O)c2cc(-c3ccc(C)cc3)nc3ccccc23)cc(OC)c1OC | Active
